From US11472826B2, “Acyclic antivirals” (priority 2016, dated 2022)

tested on: VSV-G pseudotyped HIV NL4-3; experiment: microbe, parasite or virus in culture; assay type: cell-based; settings: Human immunodeficiency virus 1, NL43, 72 h

Structure (SMILES) | EC50 [µM]
CC(Cc1ccc2c(N)nc(N)nn12)OCP(=O)(O)O (stereo not drawn) [Compound 9, (((1-(2,4-diaminopyrrolo[2,1-f][1,2,4]triazin-7-yl)propan-2-yl)oxy)methyl) phosphonic Acid] | < 20
CC(C)OC(=O)OCOP(=O)(CO[C@H](C)Cc1cnc2c(N)ncnn12)OCOC(=O)OC(C)C [Compound 12] | < 20
CC(C)OC(=O)OCOP(=O)(CO[C@H](C)Cc1cnn2c(N)ncnc12)OCOC(=O)OC(C)C [Compound 13] | < 20
C[C@H](Cc1cnc2c(N)ncnn12)OCP(=O)(O)O [Compound 5, (R)-(((1-(4-aminoimidazo[2,1-f][1,2,4]triazin-7-yl)propan-2-yl)oxy)methyl)phosphonic Acid] | < 20
C[C@@H](Cc1cnn2c(N)ncnc12)OCP(=O)(O)O [Compound 30] | < 20
C[C@H](Cc1nnc2c(N)ncnn12)OCP(=O)(O)O [Compound 4, (R)-(((1-(8-amino-[1,2,4]triazolo[3,4-f][1,2,4]triazin-3-yl)propan-2-yl)oxy)methyl)phosphonic Acid] | > 100
CC(Cc1ccc2c(N)nc(F)nn12)OCP(=O)(O)O (stereo not drawn) [Compound 8, (((1-(4-amino-2-fluoropyrrolo[2,1-f][1,2,4]triazin-7-yl)propan-2-yl)oxy)methyl)phosphonic Acid] | 20 to 100
CC(C)OC(=O)OCOP(=O)(CO[C@H](C)Cc1ccc2c(N)ncnn12)OCOC(=O)OC(C)C [Compound 11] | < 20
Nc1ncnn2c(COCCP(=O)(O)O)ccc12 [Compound 1, (2-((4-aminopyrrolo[2,1-f][1,2,4]triazin-7-yl)methoxy)ethyl)phosphonic Acid] | > 100
Nc1ncnc2c(CC(CF)OCP(=O)(O)O)cnn12 (stereo not drawn) [Compound 10, (1-(4-aminopyrazolo[1,5-a][1,3,5]triazin-8-yl)-3-fluoropropan-2-yloxy)methylphosphonic Acid] | < 20
C[C@H](Cc1cnn2c(N)ncnc12)OCP(=O)(O)O [Compound 29] | 20 to 100
CC(Cc1cnn2c(N)ncnc12)OCP(=O)(O)O (stereo not drawn) [Compound 7, (1-(4-aminopyrazolo[1,5-a][1,3,5]triazin-8-yl)propan-2-yloxy)methylphosphonic Acid] | < 20
C[C@H](Cc1ncc2c(N)ncnn12)OCP(=O)(O)O [Compound 6, (R)-(((1-(4-aminoimidazo[5,1-f][1,2,4]triazin-7-yl)propan-2-yl)oxy)methyl)phosphonic Acid] | > 100
Nc1ncnn2c(CCOCP(=O)(O)O)ccc12 [Compound 3, ((2-(4-aminopyrrolo[2,1-f][1,2,4]triazin-7-yl)ethoxy)methyl)phosphonic Acid] | > 100

target: Recombinant full length HIV-1 Reverse Transcriptase (HIVrt) (Human immunodeficiency virus type 1 group M subtype B (isolate HXB2) (HIV-1), UniProt P04585); experiment: Inhibition of HIV reverse transcriptase (HIVrt RNA-dependent DNA polymerization assay); assay type: biochemical; settings: 1 nM HIVrt, c5′UTR RNA template, 30° C., 40 min; phosphono diphosphates tested
Protocol: Recombinant full length HIV-1 Reverse Transcriptase (HIVrt) was purchased from Abcam, catalog #ab63979. The last 385 nucleotide region of the HCV anti-genome complementary to the 5′ untranslated region (c5′UTR) was synthesized using T7 RNA polymerase Megascript kit from Ambion (Cat #AM1333). A DNA oligo served as an internal initiation primer and was purchased from IDT. Unless otherwise specified, reaction samples consisted of 20 nM c5′UTR RNA, 100 nM DNA primer, and 1 nM HIVrt, mixed together in a buffer containing 50 mM Tris pH 7.5, 100 mM KCl, 4 mM dithiothreitol (DTT), and 12.5 mM MgCl2. Reactions were initiated at 30° C. by adding 0.1 μM adenosine triphosphate (dATP), 0.1 μM cytosine triphosphate (dCTP), 1 μM guanosine triphosphate (dGTP), and 0.32 μM ^3H-thymidine triphosphate (^3H-TTP), in a final volume of 50 μL. After 40-mins incubation, the reaction was terminated by adding 60 μl of chilled 20% (w/v) trichloroacetic acid with 500 μM ATP to precipitate nucleic acids. After incubation at 4° C. for 1 h, the sample underwent filtration on a multiscreen BV 1.2-μm 96-well plate (Millipore). 40 μL Microscint-20 (Perkin Elmer) was added to the well and the counts in the sample were determined by a Trilux Microbeta microplate scintillation reader (Wallac).
All data were analyzed with GraphPad Prism. The compound concentration at which the enzyme-catalyzed rate was reduced by 50% (IC50) was calculated by fitting the data to the equation Y=% Min+(% Max−% Min)/(1+X/IC50), where Y corresponds to the percent relative enzyme activity, % Min is the residual relative activity at saturating compound concentration, % Max is the relative maximum enzyme activity, and X corresponds to the compound concentration. The Ki was calculated using the Cheng-Prusoff equation assuming competitive inhibition relative to natural dNTP incorporation: Ki=IC50/(1+[dNTP]/Km), where [dNTP] is the concentration of natural dNTP and Km is the apparent Km for dNTP. The standard HIVrt RNA-dependent DNA polymerization (RdDp) assay was used to determine the IC50 values.

Structure (SMILES) | IC50 [nM]
Nc1ncnn2c(C[C@H](CF)OCP(=O)(O)OP(=O)(O)OP(=O)(O)O)cnc12 [Compound 82] | 50 to 250
CC(Cc1ccc2c(N)nc(N)nn12)OCP(=O)(O)OP(=O)(O)OP(=O)(O)O (stereo not drawn) [Compound 28] | ≥ 250
C[C@H](Cc1cnc2c(N)ncnn12)OCP(=O)(O)OP(=O)(O)OP(=O)(O)O [Compound 23] | < 50
Nc1ncnc2c(C[C@@H](OCP(=O)(O)OP(=O)(O)OP(=O)(O)O)C(F)F)cnn12 [Compound 81] | 50 to 250
CC(C)(Cc1cnn2c(=O)[nH]c(N)nc12)OCP(=O)(O)OP(=O)(O)OP(=O)(O)O [Compound 83] | ≥ 250
C[C@H](Cc1ncc2c(N)ncnn12)OCP(=O)(O)OP(=O)(O)OP(=O)(O)O [Compound 24] | ≥ 250
Nc1ncnn2c(C[C@@H](CF)OCP(=O)(O)OP(=O)(O)OP(=O)(O)O)cnc12 [Compound 80] | 50 to 250
C[C@H](Cc1ccc2c(N)ncnn12)OCP(=O)(O)OP(=O)(O)OP(=O)(O)O [Compound 21] | < 50
Nc1ncnn2c(COCCP(=O)(O)OP(=O)(O)OP(=O)(O)O)ccc12 [Compound 19] | ≥ 250
CC(Cc1ccc2c(=O)[nH]cnn12)OCP(=O)(O)OP(=O)(O)OP(=O)(O)O (stereo not drawn) [Compound 55] | ≥ 250
C[C@H](Cc1nnc2c(N)ncnn12)OCP(=O)(O)OP(=O)(O)OP(=O)(O)O [Compound 22] | ≥ 250
C[C@H](Cc1cnn2c(N)ncnc12)OCP(=O)(O)OP(=O)(O)OP(=O)(O)O [Compound 25] | 50 to 250
CC(Cc1ccc2c(N)nc(F)nn12)OCP(=O)(O)OP(=O)(O)OP(=O)(O)O (stereo not drawn) [Compound 27] | < 50
CC(Cc1cnc2c(=O)[nH]c(N)nn12)OCP(=O)(O)OP(=O)(O)OP(=O)(O)O (stereo not drawn) [Compound 57] | 50 to 250
Nc1ncnc2c(C[C@@H](CF)OCP(=O)(O)OP(=O)(O)OP(=O)(O)O)cnn12 [Compound 58] | < 50
Nc1ncnc2c(CC3(OCP(=O)(O)OP(=O)(O)OP(=O)(O)O)CC3)cnn12 [Compound 60] | 50 to 250
CC(Cc1ccc2c(=O)[nH]c(N)nn12)OCP(=O)(O)OP(=O)(O)OP(=O)(O)O (stereo not drawn) [Compound 56] | < 50
Nc1ncnc2c(C[C@H](CF)OCP(=O)(O)OP(=O)(O)OP(=O)(O)O)cnn12 [Compound 59] | < 50
Nc1ncnc2c(C[C@H](OCP(=O)(O)OP(=O)(O)OP(=O)(O)O)C(F)F)cnn12 [Compound 79] | ≥ 250
Nc1ncnn2c(CCOCP(=O)(O)OP(=O)(O)OP(=O)(O)O)ccc12 [Compound 20] | < 50
C[C@@H](Cc1cnn2c(N)ncnc12)OCP(=O)(O)OP(=O)(O)OP(=O)(O)O [Compound 26] | < 50

tested on: HBV; experiment: microbe, parasite or virus in culture; assay type: cell-based; settings: HepG2.117 cells, 72 hours, HBV viral copy numbers in supernatant; read-out: EC50

Structure (SMILES) | EC50 [nM]
Nc1ncnc2c(C[C@H](OCP(=O)(O)O)C(F)F)cnn12 [Compound 65, (S) (((3-(4-aminoprazolo[1,5-a][1,3,5]triazin-8-yl)-1,1-difluoropropan-2-yl)oxy)methyl)phosphonic Acid] | 1000 to 10000

same assay, conditions: Hepatitis B virus, HepG2.117, 72 h

Structure (SMILES) | EC50 [nM]
CC(C)OC(=O)[C@H](C)NP(=O)(CO[C@H](C)Cc1cnn2c(N)ncnc12)Oc1ccccc1 (stereo partly drawn) [Compound 52] | < 1000
CC(C)OC(=O)[C@H](C)NP(=O)(CO[C@@H](CF)Cc1cnn2c(N)ncnc12)Oc1ccccc1 (stereo partly drawn) [Compound 62] | < 1000
CC(C)OC(=O)[C@H](C)NP(=O)(COC(C)Cc1cnc2c(=O)[nH]c(N)nn12)Oc1ccccc1 (stereo partly drawn) [Compound 61] | < 1000
CC(C)OC(=O)[C@H](C)NP(=O)(CO[C@H](CF)Cc1cnn2c(N)ncnc12)Oc1ccccc1 (stereo partly drawn) [Compound 63] | < 1000
CC(C)OC(=O)[C@H](C)NP(=O)(CO[C@H](C)Cc1cnc2c(N)ncnn12)Oc1ccccc1 (stereo partly drawn) [Compound 53] | < 1000

same assay, conditions: Hepatitis B virus; HepG2.117 cells, 72 hours, HBV viral copy numbers in supernatant; read-out: EC50

Structure (SMILES) | EC50 [nM]
CC(Cc1ccc2c(N)nc(N)nn12)OCP(=O)(O)O (stereo not drawn) [Compound 9, (((1-(2,4-diaminopyrrolo[2,1-f][1,2,4]triazin-7-yl)propan-2-yl)oxy)methyl) phosphonic Acid] | 1000 to 10000
CC(Cc1cnc2c(=O)[nH]c(N)nn12)OCP(=O)(O)O (stereo not drawn) [Compound 48, (((1-(2-amino-4-oxo-3,4-dihydroimidazo[2,1-f][1,2,4]triazin-7-yl)propan-2-yl)oxy)methyl)phosphonic Acid] | < 1000
CC(C)OC(=O)OCOP(=O)(CO[C@H](C)Cc1cnc2c(N)ncnn12)OCOC(=O)OC(C)C [Compound 12] | < 1000
CC(C)OC(=O)OCOP(=O)(CO[C@H](C)Cc1cnn2c(N)ncnc12)OCOC(=O)OC(C)C [Compound 13] | > 100000
Nc1ncnn2c(C[C@H](CF)OCP(=O)(O)O)cnc12 [Compound 68, (R)-(((1-(4-aminoimidazo[2,1-f][1,2,4]triazin-7-yl)-3-fluoropropan-2-yl)oxy)methyl)phosphonic Acid] | < 1000
CC(C)OC(=O)OCOP(=O)(COC(C)Cc1ccc2c(=O)[nH]c(N)nn12)OCOC(=O)OC(C)C (stereo not drawn) [Compound 51] | < 1000
CC(C)OC(=O)OCOP(=O)(COC(CF)Cc1cnn2c(N)ncnc12)OCOC(=O)OC(C)C (stereo not drawn) [Compound 16] | < 1000
Nc1ncnn2c(C[C@@H](CF)OCP(=O)(O)O)cnc12 [Compound 67, (S)-(((1-(4-aminoimidazo[2,1-f][1,2,4]triazin-7-yl)-3-fluoropropan-2-yl)oxy)methyl) phosphonic Acid] | 10000 to 100000
Nc1ncnc2c(C[C@@H](OCP(=O)(O)O)C(F)F)cnn12 [Compound 66, (R)-(((3-(4-aminopyrazolo[1,5-a][1,3,5]triazin-8-yl)-1,1-difluoropropan-2-yl)oxy)methyl)phosphonic Acid] | 1000 to 10000
CC(Cc1ccc2c(N)nc(F)nn12)OCP(=O)(O)O (stereo not drawn) [Compound 8, (((1-(4-amino-2-fluoropyrrolo[2,1-f][1,2,4]triazin-7-yl)propan-2-yl)oxy)methyl)phosphonic Acid] | 10000 to 100000
CC(C)OC(=O)OCOP(=O)(COC(C)Cc1ccc2c(N)nc(N)nn12)OCOC(=O)OC(C)C (stereo not drawn) [Compound 18] | 1000 to 10000
CC(C)OC(=O)OCOP(=O)(COCCc1ccc2c(N)ncnn12)OCOC(=O)OC(C)C [Compound 15] | 1000 to 10000
CC(C)OC(=O)OCOP(=O)(CO[C@H](C)Cc1ccc2c(N)ncnn12)OCOC(=O)OC(C)C [Compound 11] | < 1000
Nc1ncnn2c(COCCP(=O)(O)O)ccc12 [Compound 1, (2-((4-aminopyrrolo[2,1-f][1,2,4]triazin-7-yl)methoxy)ethyl)phosphonic Acid] | < 1000
Nc1ncnc2c(CC(CF)OCP(=O)(O)O)cnn12 (stereo not drawn) [Compound 10, (1-(4-aminopyrazolo[1,5-a][1,3,5]triazin-8-yl)-3-fluoropropan-2-yloxy)methylphosphonic Acid] | 1000 to 10000
Nc1ncnc2c(CC3(OCP(=O)(O)O)CC3)cnn12 [Compound 64, ((1-((4-aminopyrazolo[1,5-a][1,3,5]triazin-8-yl)methyl)cyclopropoxy)methyl) phosphonic Acid] | 10000 to 100000
